# Reference: patent US20240075017A1 (priority 2021, published 2024)
# Test system: SARS-CoV-2 (B.1.351, beta variant)
# Parameters: species or system C57BL/6 mice
# Details: mouse, in vivo
structure (smiles),measurement,value
"Nc1nccc2c1ncn2[C@@H]1C=C(CO)[C@@H](O)[C@H]1O [DZNep, 3-deazaneplanocin A]","abundance of viral transcripts N, M and E in lung RNA by RT-qPCR",significant DZNep-dependent reduction in abundance of viral transcripts
same,lung infectious viral load (titration of lung homogenate supernatant on Vero E6 cells),significant reduction of the viral load in the lungs
